Experimental data published in publication PMC6553790 (PLoS Pathogens, 2019).

Tests used:
Plasmodium parasites = conditions: cited from earlier work
[1] = tested on: P. falciparum Cam3.II lines; test: Stage-specificity 1 hr pulse survival assay; assay type: cell-based, Plasmodium falciparum; conditions: 150 nM
Method: All stage-specificity tests were concluded 72 hr from the start of the experiment. Assays were performed in duplicate. Parasites were prepared by synchronizing ring stages with 5% D-Sorbitol and later isolating the schizonts over a 75% Percoll gradient. These schizonts were allowed to reinvade fresh RBCs at 2% hematocrit. Parasites were tested as purified schizonts, early rings, mid rings, late rings or trophozoites (~45–47, 0–3, 10–13, 18–21 and 24–27 hr post-invasion, respectively), and exposed to drug or DMSO vehicle control in 1 mL volumes. Parasites were seeded at 0.5% parasitemia and 1% hematocrit in a 48-well plate.
Drug-treated parasites were washed as previously described for the RSA0-3h. Briefly, 1 mL cultures were transferred to 15 mL conical tubes, centrifuged at 800×g for 5 minutes to pellet cells, and the culture medium containing drug was carefully removed. Cells were subsequently resuspended in 10 mL drug-free medium, centrifuged, and the wash medium removed. Finally, cells were resuspended in 1 mL of fresh drug-free medium, transferred to a new well, and returned to standard culture conditions for the duration of the assay. Parasitemias were measured by flow cytometry and the survival of drug-treated parasites was calculated as a percent of DMSO-treated control cultures.

[2] = tested on: P. falciparum Cam3.II lines; test: Isobologram analyses (fixed-ratio drug combinations); assay type: cell-based, Plasmodium falciparum
Method: Assays were performed with fixed ratios of drug combinations (1:0, 4:1, 2:1, 1:1, 1:2, 1:4, and 0:1), tested in duplicate. Combinations were prepared from 16×IC50 drug stocks and tested across a range of two-fold dilutions. Assays were conducted with asynchronous cultures exposed for 72 hr or with tightly synchronized rings or trophozoites (tested at 0–3 hr or 24–27 hr post-invasion, respectively) exposed for 3 hr. Post-pulse drug washouts were conducted as described above for in vitro determination of IC50 levels. IC50 values were derived for each compound tested alone, and fractional IC50 (FIC50) values were determined for each compound tested in combination (FIC50 = […]) and plotted for each drug combination. For each combination, the mean of the sums of FIC50 values at each combination (mean ΣFIC50) was also calculated and the results illustrated using heat maps.

## CC(C)(C)NC(=O)C[C@H](NC(=O)CCc1ccccc1)C(=O)NCCNC(=O)c1cccc(-c2ccccc2)c1 [PKS21004]
Plasmodium parasites
  Resistance of selected parasites, fold increase over the sensitive parent: > 130 fold

## C[C@H]1[C@@H](O)O[C@@H]2O[C@@]3(C)CC[C@H]4[C@H](C)CC[C@@H]1[C@@]24OO3 [DHA, dihydroartemisinin]
[1]; Early rings (0–3 hpi), Cam3.II K13C580Y
  Mean percent survival: 57.9 ± 5.6%
[1]; Early rings (0–3 hpi), Cam3.II K13WT
  Mean percent survival: 46.8 ± 10.6%
[1]; Late rings (18–21 hpi), Cam3.II K13C580Y
  Mean percent survival: 13.5 ± 3.1%
[1]; Late rings (18–21 hpi), Cam3.II K13WT
  Mean percent survival: 18.9 ± 5.6%
[1]; Mid rings (10–13 hpi), Cam3.II K13C580Y
  Mean percent survival: 29.1 ± 3.4%
[1]; Mid rings (10–13 hpi), Cam3.II K13WT
  Mean percent survival: 35.4 ± 2.7%
[1]; Schizonts (45–48 hpi), Cam3.II K13C580Y
  Mean percent survival: 71.9 ± 13.6%
[1]; Schizonts (45–48 hpi), Cam3.II K13WT
  Mean percent survival: 59.0 ± 5.3%
[1]; Trophs (24–27 hpi), Cam3.II K13C580Y
  Mean percent survival: 4.1 ± 0.6%
[1]; Trophs (24–27 hpi), Cam3.II K13WT
  Mean percent survival: 2.3 ± 0.1%
[2]; asynchronous parasites, early rings and trophozoites, Cam3.II K13WT and K13C580Y
  Interaction with WLW (isobologram): synergy
[2]; combined with WLL, Asynchronous, 72 hr, Cam3.II K13WT
  Mean of the sums of FIC50 (mean ΣFIC50): 0.89
[2]; combined with WLL, Rings, 3 hr exposure, Cam3.II K13C580Y
  Mean of the sums of FIC50 (mean ΣFIC50): 0.77
[2]; combined with WLL, Rings, 3 hr exposure, Cam3.II K13WT
  Mean of the sums of FIC50 (mean ΣFIC50): 0.69
[2]; combined with WLL, Trophozoites, 3 hr exposure, Cam3.II K13C580Y
  Mean of the sums of FIC50 (mean ΣFIC50): 0.68
[2]; combined with WLL, Trophozoites, 3 hr exposure, Cam3.II K13WT
  Mean of the sums of FIC50 (mean ΣFIC50): 0.70
[2]; combined with WLW, Asynchronous, 72 hr, Cam3.II K13C580Y
  Mean of the sums of FIC50 (mean ΣFIC50): 0.71
[2]; combined with WLW, Asynchronous, 72 hr, Cam3.II K13WT
  Mean of the sums of FIC50 (mean ΣFIC50): 0.66
[2]; combined with WLW, Rings, 3 hr exposure, Cam3.II K13C580Y
  Mean of the sums of FIC50 (mean ΣFIC50): 0.44
[2]; combined with WLW, Rings, 3 hr exposure, Cam3.II K13WT
  Mean of the sums of FIC50 (mean ΣFIC50): 0.43
[2]; combined with WLW, Trophozoites, 3 hr exposure, Cam3.II K13C580Y
  Mean of the sums of FIC50 (mean ΣFIC50): 0.73
[2]; combined with WLW, Trophozoites, 3 hr exposure, Cam3.II K13WT
  Mean of the sums of FIC50 (mean ΣFIC50): 0.69
[2]; early rings and trophozoites
  Interaction with WLL (isobologram): Synergy
